This note sets out measurements from patent publication US20050234076A1, “Triazolopyrimidines” (priority 2002, published 2005).

For the first experiment, the system named is Alternaria solani. The experiment can be described thus: Alternaria Test (tomato)/protective. It is filed as in vivo. The note with it: tomato plants, protective spray, 750 g/ha, evaluation 7 days after inoculation; 100% = no infection. On the procedure:
Alternaria Test (tomato)/protective Solvent: 49 parts by weight of N,N-dimethylformamide Emulsifier: 1 part by weight of alkylaryl polyglycol ether To produce a suitable preparation of active compound, 1 part by weight of active compound is mixed with the stated amounts of solvent and emulsifier, and the concentrate is diluted with water to the desired concentration. […] The plants then remain at 96% relative atmospheric humidity and at a temperature of 20° C.
In turn, `Fc1cc(F)c(-c2c(Cl)nc3ncnn3c2N2CCCCO2)c(F)c1` [drawing 101] returned an Efficacy in % of 100%. `Fc1ccc(-c2c(Cl)nc3ncnn3c2N2CCCCO2)c(Cl)c1` [drawing 102] displayed an Efficacy in % of 100%.

For `Fc1cc(F)c(-c2c(Cl)nc3ncnn3c2N2Cc3ccccc3CO2)c(F)c1` [drawing 100], the Efficacy in % was 100%. On the same count and under the same terms, then `Fc1cc(F)c(-c2c(Cl)nc3ncnn3c2N2CCC=N2)c(F)c1` [drawing 103], with 95%.

Another experiment concerns Pyricularia oryzae.
Experiment: not given
It is filed as in vivo. The note with it: rice plants, protective spray, 500 g/ha, evaluation 7 days after inoculation; 100% = no infection.
The molecule `Fc1cccc(Cl)c1-c1c(Cl)nc2ncnn2c1N1CCCCN1` [drawing 106] had an Efficacy in % of 100%. The same measure, in the same setting: then `Fc1ccc(-c2c(Cl)nc3ncnn3c2N2CCCCO2)c(F)c1` [drawing 105], with 100%; and `Fc1ccc(-c2c(Cl)nc3ncnn3c2N2CCCCO2)c(Cl)c1` [drawing 104], with 100%.

In the next experiment the test system is Venturia inaequalis. The experiment can be described thus: Venturia Test (apple)/protective. It is filed as in vivo. To be noted: 240 h, apple plants, protective spray, evaluation 10 days after inoculation, 100% = no infection, read-out: Efficacy in %. On the procedure:
Venturia Test (apple)/protective Solvents: 24.5 parts by weight of acetone • 24.5 parts by weight of dimethylacetamide Emulsifier: 1.0 parts by weight alkylaryl polyglycol ether To produce a suitable preparation of active compound, 1 part by weight of active compound is mixed with the stated amounts of solvent and emulsifier, and the concentrate is diluted with water to the desired concentration. To test for protective activity, young plants are sprayed with the preparation of active compound at the stated application rate. […] The plants are then placed in a greenhouse at about 21° C. and a relative atmospheric humidity of about 90%.
On to `Fc1cccc(F)c1-c1c(Cl)nc2ncnn2c1N1CCCCO1` [drawing 57], for which the pest or weed control at 100 g/ha was found to be 100%. Still for that read-out and setting: then `CC1C=CCN(c2c(-c3c(F)cc(F)cc3F)c(Cl)nc3ncnn23)O1` (stereo not drawn) [drawing 50], with 100%; and `Fc1cccc(Cl)c1-c1c(Cl)nc2ncnn2c1N1OC2CCC1C2` (stereo not drawn) [drawing 58], with 100%; and `Fc1cccc(Cl)c1-c1c(Cl)nc2ncnn2c1N1NC2CCC1C2` (stereo not drawn) [drawing 66], with 100%. The same measure, in the same setting: the result for `Fc1cc(F)c(-c2c(Cl)nc3ncnn3c2N2CCCCO2)c(F)c1` [drawing 46] reads 100%; that for `CC1CCON1c1c(-c2c(F)cc(F)cc2F)c(Cl)nc2ncnn12` (stereo not drawn) [drawing 55], 100%. Consider `Clc1cccc(Cl)c1-c1c(Cl)nc2ncnn2c1N1CCCCN1` [drawing 64], for which the pest or weed control at 100 g/ha was determined as 99%. Regarding `Fc1ccc(-c2c(Cl)nc3ncnn3c2N2CCCCO2)c(Cl)c1` [drawing 47], the pest or weed control at 100 g/ha is 100%. For `Fc1cc(F)c(-c2c(Cl)nc3ncnn3c2N2OC3CCC2C3)c(C(F)(F)F)c1` (stereo not drawn) [drawing 53], the pest or weed control at 100 g/ha was 100%. On the same count and under the same terms, the result for `CC1CCCON1c1c(-c2ccccc2Cl)c(Cl)nc2ncnn12` (stereo not drawn) [drawing 61] reads 99%; that for `Fc1cc(C(F)(F)F)cc(F)c1-c1c(Cl)nc2ncnn2c1N1CCCCN1` [drawing 70], 100%; that for `Fc1ccc(-c2c(Cl)nc3ncnn3c2N2CCCCO2)c(F)c1` [drawing 48], 96%. On the same count and under the same terms, then `Fc1cc(F)c(-c2c(Cl)nc3ncnn3c2N2OC3CCC2C3)c(F)c1` (stereo not drawn) [drawing 51], with 100%; and `Clc1ccc(-c2c(Cl)nc3ncnn3c2N2CCCCN2)c(Cl)c1` [drawing 69], with 95%.
